Measurements reported in ChEMBL document CHEMBL5055675, “Apoptosis Inducing 1,3,4-Oxadiazole Conjugates of Capsaicin: Their In Vitro Antiproliferative and In Silico Studies” (ACS Med Chem Lett, 2021).

Columns and labels:
Format in all cases: functional
MOLT-4 = test: Antiproliferative activity against human MOLT-4 cells assessed as cell growth at 10 uM incubated for 48 hrs by sulforhodamine B assay relative to control; conditions: read-out: Activity
SNB-75 = test: Antiproliferative activity against human SNB-75 cells assessed as cell growth at 10 uM incubated for 48 hrs by sulforhodamine B assay relative to control; conditions: read-out: Activity
TK-10 = test: Antiproliferative activity against human TK-10 cells assessed as cell growth at 10 uM incubated for 48 hrs by sulforhodamine B assay relative to control; conditions: read-out: Activity
A498 = test: Antiproliferative activity against human A498 cells assessed as cell growth at 10 uM incubated for 48 hrs by sulforhodamine B assay relative to control; conditions: read-out: Activity
SF-268 = test: Antiproliferative activity against human SF-268 cells assessed as cell growth at 10 uM incubated for 48 hrs by sulforhodamine B assay relative to control; conditions: read-out: Activity
UO-31 = test: Antiproliferative activity against human UO-31 cells assessed as cell growth at 10 uM incubated for 48 hrs by sulforhodamine B assay relative to control; conditions: read-out: Activity
OVCAR-3 = test: Antiproliferative activity against human OVCAR-3 cells assessed as cell growth at 10 uM incubated for 48 hrs by sulforhodamine B assay relative to control; conditions: read-out: Activity
OVCAR-8 = test: Antiproliferative activity against human OVCAR-8 cells assessed as cell growth at 10 uM incubated for 48 hrs by sulforhodamine B assay relative to control; conditions: read-out: Activity
MDA-MB-231 = test: Antiproliferative activity against human MDA-MB-231/ATCC cells assessed as cell growth at 10 uM incubated for 48 hrs by sulforhodamine B assay relative to control; conditions: read-out: Activity
RXF 393 = test: Antiproliferative activity against human RXF 393 cells assessed as cell growth at 10 uM incubated for 48 hrs by sulforhodamine B assay relative to control; conditions: read-out: Activity
COLO 205 = test: Antiproliferative activity against human COLO 205 cells assessed as cell growth at 10 uM incubated for 48 hrs by sulforhodamine B assay relative to control; conditions: read-out: Activity
NCI/ADR-RES = test: Antiproliferative activity against human NCI/ADR-RES cells assessed as cell growth at 10 uM incubated for 48 hrs by sulforhodamine B assay relative to control; conditions: read-out: Activity
SF-539 = test: Antiproliferative activity against human SF-539 cells assessed as cell growth at 10 uM incubated for 48 hrs by sulforhodamine B assay relative to control; conditions: read-out: Activity
CCRF-CEM = test: Antiproliferative activity against human CCRF-CEM cells assessed as cell growth at 10 uM incubated for 48 hrs by sulforhodamine B assay relative to control; conditions: read-out: Activity
M14 = test: Antiproliferative activity against human M14 cells assessed as cell growth at 10 uM incubated for 48 hrs by sulforhodamine B assay relative to control; conditions: read-out: Activity
SNB-19 = test: Antiproliferative activity against human SNB-19 cells assessed as cell growth at 10 uM incubated for 48 hrs by sulforhodamine B assay relative to control; conditions: read-out: Activity
Hs-578T = test: Antiproliferative activity against human Hs-578T cells assessed as cell growth at 10 uM incubated for 48 hrs by sulforhodamine B assay relative to control; conditions: read-out: Activity
RPMI-8226 = test: Antiproliferative activity against human RPMI-8226 cells assessed as cell growth at 10 uM incubated for 48 hrs by sulforhodamine B assay relative to control; conditions: read-out: Activity
UACC-62 = test: Antiproliferative activity against human UACC-62 cells assessed as cell growth at 10 uM incubated for 48 hrs by sulforhodamine B assay relative to control; conditions: read-out: Activity
ACHN = test: Antiproliferative activity against human ACHN cells assessed as cell growth at 10 uM incubated for 48 hrs by sulforhodamine B assay relative to control; conditions: read-out: Activity
KM12 = test: Antiproliferative activity against human KM12 cells assessed as cell growth at 10 uM incubated for 48 hrs by sulforhodamine B assay relative to control; conditions: read-out: Activity
SK-MEL-2 = test: Antiproliferative activity against human SK-MEL-2 cells assessed as cell growth at 10 uM incubated for 48 hrs by sulforhodamine B assay relative to control; conditions: read-out: Activity
UACC-257 = test: Antiproliferative activity against human UACC-257 cells assessed as cell growth at 10 uM incubated for 48 hrs by sulforhodamine B assay relative to control; conditions: read-out: Activity
NCI-H522 = test: Antiproliferative activity against human NCI-H522 cells assessed as cell growth at 10 uM incubated for 48 hrs by sulforhodamine B assay relative to control; conditions: read-out: Activity
IGROV-1 = test: Antiproliferative activity against human IGROV-1 cells assessed as cell growth at 10 uM incubated for 48 hrs by sulforhodamine B assay relative to control; conditions: read-out: Activity
MDA-MB-435 = test: Antiproliferative activity against human MDA-MB-435 cells assessed as cell growth at 10 uM incubated for 48 hrs by sulforhodamine B assay relative to control; conditions: read-out: Activity
HCT-116 = test: Antiproliferative activity against human HCT-116 cells assessed as cell growth at 10 uM incubated for 48 hrs by sulforhodamine B assay relative to control; conditions: read-out: Activity
SN12C = test: Antiproliferative activity against human SN12C cells assessed as cell growth at 10 uM incubated for 48 hrs by sulforhodamine B assay relative to control; conditions: read-out: Activity
HT-29 = test: Antiproliferative activity against human HT-29 cells assessed as cell growth at 10 uM incubated for 48 hrs by sulforhodamine B assay relative to control; conditions: read-out: Activity
NCI-H23 = test: Antiproliferative activity against human NCI-H23 cells assessed as cell growth at 10 uM incubated for 48 hrs by sulforhodamine B assay relative to control; conditions: read-out: Activity
HCC 2998 = test: Antiproliferative activity against human HCC 2998 cells assessed as cell growth at 10 uM incubated for 48 hrs by sulforhodamine B assay relative to control; conditions: read-out: Activity
OVCAR-5 = test: Antiproliferative activity against human OVCAR-5 cells assessed as cell growth at 10 uM incubated for 48 hrs by sulforhodamine B assay relative to control; conditions: read-out: Activity
K562 = test: Antiproliferative activity against human K562 cells assessed as cell growth at 10 uM incubated for 48 hrs by sulforhodamine B assay relative to control; conditions: read-out: Activity
SW-620 = test: Antiproliferative activity against human SW-620 cells assessed as cell growth at 10 uM incubated for 48 hrs by sulforhodamine B assay relative to control; conditions: read-out: Activity
DU-145 = test: Antiproliferative activity against human DU-145 cells assessed as cell growth at 10 uM incubated for 48 hrs by sulforhodamine B assay relative to control; conditions: read-out: Activity
NCI-H322M = test: Antiproliferative activity against human NCI-H322M cells assessed as cell growth at 10 uM incubated for 48 hrs by sulforhodamine B assay relative to control; conditions: read-out: Activity
BT-549 = test: Antiproliferative activity against human BT-549 cells assessed as cell growth at 10 uM incubated for 48 hrs by sulforhodamine B assay relative to control; conditions: read-out: Activity
LOX IMVI = test: Antiproliferative activity against human LOX IMVI cells assessed as cell growth at 10 uM incubated for 48 hrs by sulforhodamine B assay relative to control; conditions: read-out: Activity
SK-OV-3 = test: Antiproliferative activity against human SK-OV-3 cells assessed as cell growth inhibition measured after 72 hrs by crystal violet staining based assay; conditions: SK-OV-3, 72 h

SMILES | growth at 10 µM (MOLT-4) | growth at 10 µM (SNB-75) | growth at 10 µM (TK-10) | growth at 10 µM (A498) | growth at 10 µM (SF-268) | growth at 10 µM (UO-31) | growth at 10 µM (OVCAR-3) | growth at 10 µM (OVCAR-8) | growth at 10 µM (MDA-MB-231) | growth at 10 µM (RXF 393) | growth at 10 µM (COLO 205) | growth at 10 µM (NCI/ADR-RES) | growth at 10 µM (SF-539) | growth at 10 µM (CCRF-CEM) | growth at 10 µM (SNB-19) | growth at 10 µM (Hs-578T) | growth at 10 µM (UACC-62) | growth at 10 µM (ACHN) | growth at 10 µM (KM12) | growth at 10 µM (SK-MEL-2) | also measured
COc1cc(CNC(=O)CCCC/C=C/C(C)C)ccc1OCc1nnc(Nc2cccc(Br)c2)o1 | 83.5% | 83.5% | 104% | 77.8% | 92.6% | 64% | 88% | 98% | 78.3% | 70.6% | 110% | 87% | 88.4% | 81.8% | 99.5% | 93.7% | 67.5% | 85.1% | 90.3% | 105% | growth at 10 µM (M14): 93.3%; growth at 10 µM (RPMI-8226): 70.3%; growth at 10 µM (UACC-257): 105%; growth at 10 µM (NCI-H522): 68.6%; growth at 10 µM (IGROV-1): 92.9%; growth at 10 µM (MDA-MB-435): 101%; growth at 10 µM (HCT-116): 67.6%; growth at 10 µM (SN12C): 95.7%; growth at 10 µM (HT-29): 97.7%; growth at 10 µM (NCI-H23): 66%; growth at 10 µM (HCC 2998): 101%; growth at 10 µM (OVCAR-5): 91.1%; growth at 10 µM (K562): 65%; growth at 10 µM (SW-620): 95.4%; growth at 10 µM (DU-145): 89.8%; growth at 10 µM (NCI-H322M): 98%; growth at 10 µM (BT-549): 76.4%; growth at 10 µM (LOX IMVI): 88.9%
COc1cc(CNC(=O)CCCC/C=C/C(C)C)ccc1OCc1nnc(SCCc2c[nH]c3ccccc23)o1 | 29.2% | 83.1% | 91.7% | 73.3% | 78.9% | 45% | 88.3% | 71.3% | 70.6% | 54% | 71.2% | 56.5% | 80.8% | 34.7% | 77% | 81% | 67.5% | 76.5% | 73.3% | 86.7% | IC50 (SK-OV-3): 31.4 µM; growth at 10 µM (UACC-257): 101%; growth at 10 µM (NCI-H522): 59.4%; growth at 10 µM (IGROV-1): 73.7%; growth at 10 µM (MDA-MB-435): 90.2%; growth at 10 µM (HCT-116): 70%; growth at 10 µM (SN12C): 83.1%; growth at 10 µM (HT-29): 69.7%; growth at 10 µM (NCI-H23): 66.6%; growth at 10 µM (HCC 2998): 98%; growth at 10 µM (OVCAR-5): 102%; growth at 10 µM (K562): 40.7%; growth at 10 µM (SW-620): 84.7%; growth at 10 µM (DU-145): 94.9%; growth at 10 µM (NCI-H322M): 88.7%; growth at 10 µM (BT-549): 75%; growth at 10 µM (LOX IMVI): 55.2%
COc1cc(CNC(=O)CCCC/C=C/C(C)C)ccc1OCc1nnc(Nc2ccccc2F)o1 | 82% | 57.8% | 97.7% | 92.5% | 45.5% | 52.8% | 68.3% | 45.2% | 63.9% | 68.8% | 104% | 43.4% | 48.2% | 83% | 58.5% | 83.7% | 65.5% | 56% | 78.8% | 111% | IC50 (SK-OV-3): 12.5 µM; growth at 10 µM (M14): 99.7%; growth at 10 µM (RPMI-8226): 64.9%; growth at 10 µM (UACC-257): 98.2%; growth at 10 µM (NCI-H522): 60.3%; growth at 10 µM (IGROV-1): 58.4%; growth at 10 µM (MDA-MB-435): 100%; growth at 10 µM (HCT-116): 53.5%; growth at 10 µM (SN12C): 70.5%; growth at 10 µM (HT-29): 90%; growth at 10 µM (NCI-H23): 63.8%; growth at 10 µM (HCC 2998): 90.8%; growth at 10 µM (OVCAR-5): 77.7%; growth at 10 µM (K562): 60.4%; growth at 10 µM (SW-620): 98.9%; growth at 10 µM (DU-145): 88.7%; growth at 10 µM (NCI-H322M): 86.1%; growth at 10 µM (BT-549): 77%; growth at 10 µM (LOX IMVI): 83.4%
COc1cc(CNC(=O)CCCC/C=C/C(C)C)ccc1OCc1nnc(Nc2ccc([N+](=O)[O-])cc2)o1 | 84.2% | 48.7% | 84.1% | 56.8% | 79.7% | 58.7% | 77.3% | 25% | 67.1% | 54.1% | 70.9% | 79.6% | 70.2% | 78.8% | 54% | 63.2% | 39.6% | 41.2% | 71.7% | 71.9% | IC50 (SK-OV-3): 6.4 µM; growth at 10 µM (M14): 69.6%; growth at 10 µM (RPMI-8226): 52.3%; growth at 10 µM (UACC-257): 77.6%; growth at 10 µM (NCI-H522): 73%; growth at 10 µM (IGROV-1): 53.5%; growth at 10 µM (MDA-MB-435): 66.4%; growth at 10 µM (HCT-116): 24.6%; growth at 10 µM (SN12C): 49%; growth at 10 µM (HT-29): 71.7%; growth at 10 µM (NCI-H23): 62.1%; growth at 10 µM (HCC 2998): 83.6%; growth at 10 µM (OVCAR-5): 101%; growth at 10 µM (K562): 59.6%; growth at 10 µM (SW-620): 67.3%; growth at 10 µM (DU-145): 62%; growth at 10 µM (NCI-H322M): 54.9%; growth at 10 µM (BT-549): 108%; growth at 10 µM (LOX IMVI): 55.2%
